Measured values taken from article PMC3971658 (The Journal of General Physiology, 2014).

Key:
[1] = system: human Cav2.1 (α1A-2) channel alone; type: cell-based; details: 50 µM
[2] = system: human Cav2.3c (α1E-c) channel alone; type: cell-based; details: 50 µM
Human Cav2.3d = type: cell-based; details: 50 µM
Human Cav2.3c = type: cell-based; details: 50 µM
Human Cav2.1 = type: cell-based; details: 50 µM
Rabbit Cav2.1 = type: cell-based; details: 50 µM
[3] = system: c-Src / human Cav2.1 channel and GABABR; type: cell-based
[4] = system: R-type current, rat DRG neurons; type: cell-based
[5] = system: human Cav2.3c channel and GABABR
[6] = system: R-type current, thalamocortical neurons; details: cited from earlier work

For `NCC(CC(=O)O)c1ccc(Cl)cc1` (stereo not shown) [Baclofen, baclofen], the IBa inhibition [1] was 0 (5) %, the IBa inhibition [2] was 0 (6) % and the IBa inhibition (Human Cav2.3d) was 33.1 ± 1.8 (8) %. The IBa inhibition (Human Cav2.3c) was 44.0 ± 3.0 (10) %, the IBa inhibition (Human Cav2.1) was 44.4 ± 1.9 (9) % and the IBa inhibition (Rabbit Cav2.1) was “^#50.0 ± 5.0 (8) %”. For the same compound, the “baclofen inhibition of IBa with wild-type c-Src overexpression or pp60c-Src peptide” value [3] was “did not affect baclofen inhibition of IBa”, the R-type current inhibition [4] was “R-type current inhibition by baclofen” and the “V0.5,act” value [5] was −3.44 ± 0.67 mV. For the same compound, the R-type current modulation [6] was “R-type current modulation by baclofen has been demonstrated”.
